From patent US4414226A, “1,4-Naphtoquinone derivatives and their use in treating coccidiosis” (Fujisawa Pharmaceutical Co., Ltd., priority 1980, dated 1983)

Key:
Eimeria tenella = assay: coccidium infection and treatment test in the chicken (Test example 1, Table 1); type: in vivo, Eimeria tenella; male white Leghorn chickens; parameters: Lesion score: scale not given here; conditions: for Lesion score: 3 times a day for 3 days, cecal lesions; for Weight gain index: noninfected group = 100
Method: (1) A coccidium infection and treatment test in the chicken
Male white Leghorn chickens, aged 2 weeks and with a mean body weight of 100 g, were treated with two representative examples of product compound (I) and Monensin, a control drug, at the various dose levels indicated in Table 1. Each compound and drug was suspended in a 1% aqueous solution of gum arabic and 2 ml per dose of the suspension was administered 3 times a day for 3 consecutive days. Birds in the untreated control groups were given 2 ml per dose of a 1% aqueous solution of gum arabic only in otherwise the same manner.
Immediately after the first dosing, birds in the infected groups were orally inoculated with 3.0×10^4 /bird of oocysts of Eimeria tenella. Body weights were taken at the first treatment and on the 3rd day after the entire course of treatment to investigate changes in body weight. Immediately after the second taking of body weights, the birds were terminated and autopsied to examine and score the cecal lesions.
Dosage: The total dose (mg) given to each bird during the test period.
Weight gain index: These indices were computed with the body weight gain
of birds in the noninfected group being taken as 100.
Three birds were assigned to each of the infected-non-treated groups, non-infected groups, the monencin group and the (Ia-A) groups, and the weight gain indices were computed from the mean body weight values for 3 birds. The (Ia-B) groups each consisted of a bird only.

Stability = type: physicochemical
Solubility = type: physicochemical
[1] = total dose 40 mg per bird, oral
[2] = 30 minutes in 50° C. solution at pH 2
[3] = 30 minutes in 50° C. solution at pH 10

Row | Compound | Lesion score (Eimeria tenella; total dose 1.25 mg per bird) | Weight gain index (Eimeria tenella; total dose 1.25 mg per bird) | Lesion score (Eimeria tenella; total dose 2.5 mg per bird) | Weight gain index (Eimeria tenella; total dose 2.5 mg per bird) | Lesion score (Eimeria tenella; total dose 5 mg per bird) | Weight gain index (Eimeria tenella; total dose 5 mg per bird) | Lesion score (Eimeria tenella; total dose 10 mg per bird) | Weight gain index (Eimeria tenella; total dose 10 mg per bird) | Lesion score (Eimeria tenella; total dose 20 mg per bird) | Weight gain index (Eimeria tenella; total dose 20 mg per bird) | Lesion score (Eimeria tenella; [1]) | Weight gain index (Eimeria tenella; total dose 40 mg per bird) | Stability (Stability; [2]) | Stability (Stability; [3]) | Solubility (Solubility; acetone) | Solubility (Solubility; ethanol) | Solubility (Solubility; ethyl acetate) | Solubility (Solubility; hexane) | Solubility (Solubility; methanol) | Solubility (Solubility; water) | other results
1 | CC[C@@]1([C@@H]2O[C@@H]([C@H]3O[C@@](O)(CO)[C@H](C)C[C@@H]3C)C[C@@H]2C)CC[C@H]([C@]2(C)CC[C@]3(C[C@H](O)[C@@H](C)[C@@H]([C@@H](C)[C@@H](OC)[C@H](C)C(=O)O)O3)O2)O1 [Monensin, reference compound] | 4.0 | 99 | 2.7 | 92 | 2.3 | 98 | 0 | 68 | 0 | 51 | 0 | 41 | – | – | – | – | – | – | – | – | –
2 | COc1cc(C)cc(C(=O)O)c1C1=C(O)C(=O)c2c(O)cccc2C1=O [(Ia-C), 2-(3,5-dihydroxy-1,4-naphthoquinon-2-yl)-3-methoxy-5-methylbenzoic acid] | – | – | – | – | – | – | – | – | – | – | – | – | Stable | Stable | Partially soluble | Readily soluble | Partially soluble | Insoluble | Readily soluble | Insoluble | Solubility (Solubility; ether): Insoluble
3 | COc1cc(C)cc2c(=O)oc3c(c12)C(=O)c1cccc(O)c1C3=O [(Ia-A), 8-hydroxy-1-methoxy-3-methyl-7,12-dihydro-5H-benzo[d]naphtho[2,3-b]pyran-5,7,12-trione] | 2.0 | 108 | 2.0 | 92 | 0.3 | 97 | 0 | 106 | 0 | 108 | 0 | 95 | – | – | Sparingly soluble | Sparingly soluble | – | – | Sparingly soluble | Insoluble | Stability (Stability; acid solutions): Instable; Stability (Stability; alkaline solutions): Instable; Solubility (Solubility; chloroform): Sparingly soluble; Solubility (Solubility; dimethyl sulfoxide): Partially soluble; Solubility (Solubility; tetrahydrofuran): Partially soluble
4 | COc1cc(C)cc(C(=O)O)c1C1=CC(=O)c2c(O)cccc2C1=O [(Ia-B), 2-(5-hydroxy-1,4-naphthoquinon-2-yl)-3-methoxy-5-methylbenzoic acid] | – | – | 3 | 68 | 0 | 80 | 0 | 95 | 0 | 90 | 0 | 102 | Stable | Stable | Readily soluble | Readily soluble | Readily soluble | Insoluble | Readily soluble | Insoluble | Solubility (Solubility; benzene): Insoluble; Solubility (Solubility; chloroform): Readily soluble
